{"source": "patent US20140193370A1", "about": "“METHODS AND COMPOSITIONS FOR PROMOTING LEAN BODY MASS GROWTH” (NESTEC SA, priority 2011, published 2014)", "system": "adult dogs", "test": "Chronic oral OEA in the diet of dogs fed 25% more than MER; body weight gain and body composition by DEXA", "assay_type": "in vivo, dog", "from_the_text": "The physiological effects of regular oral OEA administration were investigated. OEA was provided as a supplement to dogs for […] to study the effect on body weight gain and body composition. Eighteen adult dogs participated in the study. Males with less than 17.5% body fat and females with less than 20% body fat were selected. Based on maintenance energy requirements (MER,) body weight and percentage of body fat, the dogs were randomly assigned into two groups. The control group (N=9) received a standard dry adult dog food (control diet without any OEA). The test group (N=9) received a selected dose of OEA incorporated into the standard diet. The dogs were fed 25% more than their MER for eight months. During the first four months, they received their ration in one meal per day. From month four to eight, they received their ration equally divided in two meals per day. Body weight was recorded weekly and dual X-ray absorptiometry (DEXA) scans were performed at baseline and every two months. Food intake was recorded daily. There was no difference in food consumption between groups (i.e., similar caloric intake)."}
{"smiles": "CCCCCCCC/C=C\\CCCCCCCC(=O)NCCO", "note": "[OEA, oleoylethanolamide]", "values": [{"measurement": "Lean Gain (g/kg body weight gain)", "setting": "chronic oral OEA in diet, dogs, eight months, control diet 139", "value": 170, "unit": "g/kg body weight gain"}, {"measurement": "Fat Gain (g/kg body weight gain)", "setting": "chronic oral OEA in diet, dogs, eight months, control diet 1333", "value": 853, "unit": "g/kg body weight gain"}, {"measurement": "more lean body mass gained per kilogram of body weight gain than dogs fed the control diet", "setting": "eight month study, OEA containing diet vs control diet", "value": 22, "unit": "%"}, {"measurement": "more fat gained per kilogram of body weight gain by dogs fed the control diet than by dogs fed the OEA containing diet", "setting": "eight month study, control diet vs OEA containing diet", "value": 56, "unit": "%"}, {"measurement": "body fat", "setting": "end of eight month study, dogs fed 25% more than MER, OEA incorporated into standard diet, control diet 16.0%", "value": 14.8, "unit": "%"}, {"measurement": "gain in lean body mass", "setting": "end of eight month study, dogs fed 25% more than MER, OEA incorporated into standard diet, control diet 236.9 g", "value": 446.7, "unit": "g"}, {"measurement": "food consumption (caloric intake) vs control group", "setting": "food intake recorded daily, OEA diet group vs control diet group", "value": "no difference"}]}
